21 compounds from US20240352309A1, “FLUORESCENT DYE, AND PREPARATION METHOD THEREFOR AND USE THEREOF” (FLUORESCENCE DIAGNOSIS (SHANGHAI) BIOTECH COMPANY LTD., priority 2021, published 2024) can be followed below.

The nature of data set [1]: Fluorescence emission in glycerol and methanol (Test Example 1). The data set is classed as physicochemical. Particulars: for Fluorescence intensity ratio in glycerol and methanol: 1×10^−5 M in glycerol vs methanol, maximum excitation wavelength; for Emission wavelength: 1×10^−5 M, excited at maximum excitation wavelength of each dye. The protocol:
The fluorescent dye (molecular rotors) prepared in Examples dye1-dye42 were dissolved in DMSO each to prepare a mother solution with a concentration of 1×10^−2 M, and each mother solution was added to glycerol and methanol respectively and was mixed well, and a solution with a final concentration of 1×10^−5 M was prepared.

Data set [2] is described as follows: Background fluorescence in PBS (Test Example 4). The data set is classed as physicochemical. Particulars: 1×10^−5 M, relative to contrast dyes of the same group (dye48, dye49, dye50, dye47). The protocol:
The dye1 and dye48; dye22 and dye49; dye40 and dye50; dye9, dye10 and dye47 were added to PBS to prepare a solution with a final concentration of 1×10^−5 M, corresponding maximum excitation wavelengths were used for exciting the dyes so that their fluorescence intensities in PBS could be detected, and normalization was performed with the strongest fluorescence intensity in each group of samples as 100, as shown respectively in FIGS. 21, 22, 23 and 24.

In data set [3] the test system is RNA aptamer in stable cell line (293T/17). Kind of data set: Flow detection of cells expressing RNA aptamer (Test Example 6). Particulars: 1 μM dye in PBS, 5 minutes. It counts as cell-based.
Data set [4] is described as follows: Fluorescence emission in glycerol-diethanol mixed solutions of different viscosities (Test Example 2). The data set is classed as physicochemical. Particulars: glycerol-diethanol mixed solution, 16.4-946.0 cp, 1×10^−5 M. From the text: The dye7, dye9, dye12, dye25, dye40 were respectively added into a glycerol-diethanol mixed solution with the following viscosities: 16.4 cp (the volume ratio of glycerol was 0%), 29.8 cp (the volume ratio of glycerol was 20%), 64.5 cp (the volume ratio of glycerol was 40%), 143.5 cp (the volume ratio of glycerol was 60%), 377.0 cp (the volume ratio of glycerol was 80%), 946.0 cp (the volume ratio of glycerol was 100%), so as to prepare solutions with a final concentration of 1×10^−5 M; the fluorescence emission spectra under different viscosity conditions were shown as FIGS. 1, 3, 5, 7 and 9, wherein the emission wavelengths of the above-mentioned molecular rotors were respectively 620 nm, 576 nm, 650 nm, 670 nm and 720 nm. According to the results, fluorescence intensities of fluorescent dyes of the same concentration increase with ambient viscosity.

The nature of data set [5]: Fluorescence in solvents with different polarities (Test Example 2). Particulars: methylbenzene, ethyl acetate, methyl alcohol, acetonitrile, dimethyl sulfoxide. The data set is classed as physicochemical.
Data set [6] concerns RNA aptamer in stable cell line (293T/17). Kind of data set: Confocal imaging of cells expressing RNA aptamer (Test Example 5). It counts as cell-based. Particulars: 2 uM dye, 10 min incubation, confocal microscopy; cells not expressing aptamers do not fluoresce. The method, then: Stable cell line (293T/17) continuously expressing RNA aptamer ([…]) and control cells (293T/17) were used, and cell culture media of dye1, dye12, dye25, and dye41 with a final concentration of 2 uM substituted original cell culture media after the cell line and control cells grew to a cell confluence of 90% under the conventional mammalian cell culture condition (37° C., 5% carbon dioxide, 100% relative humidity), and were incubated for 10 min (37° C., 5% carbon dioxide, 100% relative humidity).

The nature of data set [7]: Emission spectra in glycerol, wavelength adjustment (Test Example 3). It counts as physicochemical. Particulars: 1×10^−5 M. The protocol:
The dye5, dye6, dye11, dye12, dye13, dye14, dye39 and dye42 were added into glycerol to prepare a solution with a final concentration of 1×10^−5 M, fluorescent dyes were excited with corresponding maximum excitation wavelength so as to obtain the emission spectra, and some of the emission spectra were normalized.

Turning to `CN(CCO)c1ccc2cc(/C=C3\SC(=S)NC3=O)sc2c1` [dye22], in data set [1], the “Fluorescence intensity ratio in glycerol and methanol” value (“Fluorescence intensity ratio” below) was 687; the Emission wavelength amounted to 605 nm. Further, the “background fluorescence in PBS” value in data set [2] is “lower background fluorescence”.

In the case of `O=C1NC(=S)N/C1=C\c1cc2sc(N(CCO)CCO)cc2s1` [dye21], in data set [1], the “Fluorescence intensity ratio” value is 1098; the Emission wavelength amounted to 635 nm. Besides, in data set [3], the “dye background fluorescence before binding” value was “very low” and the “fluorescence after binding to RNA aptamer in cells” value (“fluorescence after binding” below) is “notably activated”.

As for `CN1CCOc2cc(/C=C3\NC(=S)NC3=O)ccc21` [dye3], in data set [1], the “Fluorescence intensity ratio” value worked out at 637; the Emission wavelength stood at 580 nm. Further, in data set [3], the “dye background fluorescence before binding” value was “very low” and the “fluorescence after binding” value was “notably activated”.

In the case of `CC1=CC(C)(C)N(C)c2ccc(/C=C3\SC(=O)NC3=S)cc21` [dye7], in data set [1], the “Fluorescence intensity ratio” value stood at 754; the Emission wavelength was 620 nm. In data set [4], the Emission wavelength was determined as 620 nm and the “viscosity response of fluorescence intensity” value (“viscosity response” for short) is on record as “sensitive to viscosity”. Also, in data set [5], the “fluorescence intensity in solvents with different polarities” value is reported as “weak”.

Turning to `CN(C)c1ccc(C2=C(C#N)C(=C(C#N)C#N)OC2(C)C)cc1` [dye50, reference compound], the “dye background fluorescence before binding” value in data set [3] was “obvious”.

On to `CN(CCO)c1cc2c(s1)-c1sc(/C=C3\NC(=S)NC3=O)cc1C2(C)C` [dye41], for which, in data set [1], the “Fluorescence intensity ratio” value stood at 594; the Emission wavelength was 735 nm. The “fluorescence of cells expressing aptamers” value in data set [6] is recorded as “bright fluorescence”.

With `CN1C(=O)S/C(=C\c2ccc(N(C)CCO)s2)C1=O` [dye1], in data set [1], the “Fluorescence intensity ratio” value is recorded as 695; the Emission wavelength was 520 nm. Further, the “background fluorescence in PBS” value in data set [2] is reported as “lower background fluorescence”. The “fluorescence of cells expressing aptamers” value in data set [6] is recorded as “bright fluorescence”.

Consider `CN1C(=S)N/C(=C\c2cc3c(s2)-c2ccc(N(C)CCO)cc2C3(C)C)C1=S` [dye40], for which, in data set [1], the “Fluorescence intensity ratio” value amounted to 695; the Emission wavelength came to 730 nm. In addition, in data set [4], the Emission wavelength is 720 nm and the “viscosity response” value is listed as “sensitive to viscosity”. Further, in data set [5], the “fluorescence intensity in solvents with different polarities” value was “weak”. In addition, in data set [2], the “background fluorescence in PBS” value is “lower background fluorescence”.

Take `CN(CCO)c1cc2sc(/C=C3\NC(=S)NC3=O)cc2s1` [dye13]: in data set [1], the “Fluorescence intensity ratio” value turned out to be 874; the Emission wavelength was 630 nm. Moreover, in data set [7] (dye13 vs dye12, ring sulfur turned into nitrogen), the “shortening of emission wavelength” value is 20 nm. Also, in data set [3], the “dye background fluorescence before binding” value is given as “very low” and the “fluorescence after binding” value is “notably activated”.

Regarding `S=C1NC(=S)/C(=C/c2cc3c4c(c2)CCCN4CCC3)S1` [dye10], in data set [1], the “Fluorescence intensity ratio” value was determined as 638; the Emission wavelength amounted to 675 nm. Besides, in data set [2], the “background fluorescence in PBS” value is listed as “lower background fluorescence”.

Take `CN(CCO)c1cc2sc(/C=C3\SC(=S)NC3=O)cc2s1` [dye12]: in data set [1], the “Fluorescence intensity ratio” value stood at 654; the Emission wavelength was found to be 650 nm. In data set [4], the Emission wavelength amounted to 650 nm and the “viscosity response” value is reported as “sensitive to viscosity”. Further, the “fluorescence intensity in solvents with different polarities” value in data set [5] is reported as “weak”. Further, in data set [6], the “fluorescence of cells expressing aptamers” value was “bright fluorescence”.

Consider `CN(CCO)c1ccc2c(c1)C(C)(C)c1cc(/C=C3\SC(=O)NC3=O)ccc1-2` [dye34], for which, in data set [1], the “Fluorescence intensity ratio” value was 630; the Emission wavelength was 680 nm. Further, in data set [3], the “dye background fluorescence before binding” value was “very low” and the “fluorescence after binding” value was “notably activated”.

Take `CN1C(=S)S/C(=C\c2cc3sc(N(C)CCO)cc3s2)C1=S` [dye16]: in data set [1], the “Fluorescence intensity ratio” value came to 982; the Emission wavelength was determined as 730 nm.

With `CN1CCSc2cc(/C=C3\SC(=S)NC3=O)ccc21` [dye6], in data set [1], the “Fluorescence intensity ratio” value amounted to 658; the Emission wavelength stood at 608 nm. Moreover, in data set [7] (dye6 vs dye5, oxo-carbonyl turned into thiocarbonyl), the “increase of emission wavelength” value was “about 50 nm”.

As to `CN1C(=O)/C(=C/c2cc3sc(N(C)CCOCCOCCO)cc3s2)SC1=S` [dye18], in data set [1], the “Fluorescence intensity ratio” value was 1026; the Emission wavelength turned out to be 588 nm.

In the case of `CN1C(=O)/C(=C/c2cc3sc(N(C)CCO)cc3s2)SC1=S` [dye15], in data set [1], the “Fluorescence intensity ratio” value is recorded as 891; the Emission wavelength came to 655 nm.

For `CN1CCOc2cc(/C=C3\SC(=O)NC3=S)ccc21` [dye4], in data set [1], the “Fluorescence intensity ratio” value is given as 984; the Emission wavelength stood at 620 nm.

With `CN(CCO)c1ccc2c(c1)C(C)(C)C(/C=C1\SC(=O)NC1=O)=N2` [dye44], in data set [1], the “Fluorescence intensity ratio” value came to 465; the Emission wavelength is 680 nm.

Take `CN(C)c1ccc2cc(/C=C3\SC(=S)N(N)C3=O)sc2c1` [dye30]: in data set [1], the “Fluorescence intensity ratio” value came to 761; the Emission wavelength is 640 nm.

As for `CN1C(=O)/C(=C/c2ccc3cc(N(C)CCCl)ccc3n2)SC1=S` [dye26], in data set [1], the “Fluorescence intensity ratio” value was determined as 871; the Emission wavelength is 660 nm.

`O=C1NC(=S)N/C1=C\c1cc2c3c(c1)CCCN3CCC2` [dye9]: in data set [1], the “Fluorescence intensity ratio” value was found to be 951; the Emission wavelength was 586 nm. Moreover, in data set [4], the Emission wavelength was 576 nm and the “viscosity response” value is recorded as “sensitive to viscosity”. In addition, the “fluorescence intensity in solvents with different polarities” value in data set [5] is on record as “weak”. Also, the “background fluorescence in PBS” value in data set [2] is recorded as “lower background fluorescence”.
